Laboratory results published in article PMC5651349 (Alzheimer's & Dementia : Translational Research & Clinical …, 2016).

Experiments:
[1] = Plasma pharmacokinetics following single dose; assay type: in vivo; conditions: both, human, oral
[2] = CSF pharmacokinetics following single dose
[3] = Adverse events, single ascending dose
[4] = Adverse events, multiple ascending dose; conditions: MAD
[5] = CSF pharmacokinetics following multiple dosing; conditions: both, human, in vivo
[6] = Plasma and urine pharmacokinetics following multiple dosing; conditions: for CL renal: Mean renal clearance

- Tmax [1]: 0.75 to 2 h
- half-life [1]: 9 to 16.1 h
- Single-dose CSF concentrations ([2]; CSF, 1-mg and 3-mg dose level, elderly): generally below the LOQ
- Maximal mean concentrations in CSF ([2]; day 1, single dose, range across 10–150 mg): 2.94 to 22.7 ng/mL
- Tmax [5]: ~4 h
- half-life [5]: 11.7 to 14.4 h
- Tmax ([6]; both, human, in vivo): 2 to 4 h
- half-life ([6]; both, human, in vivo): 14.4 to 18.5 h
- CL renal ([6]; human, in vivo, day 1 (single dose)): 1.85 mL/min
- CL renal ([6]; human, in vivo, day 14): 1.92 mL/min
- Steady state concentrations reached ([6]; plasma, multiple dosing, all cohorts): ≤ 5 days
Structure (SMILES): C[C@@]1(c2cc(NC(=O)c3ccc(C#N)cn3)ccc2F)C=CSC(N)=N1 [JNJ-54861911]
- Serious AEs (SAEs) ([3]; SAD and MAD studies): no serious AEs
- Back pain, participants with AE ([3]; SAD, all JNJ-54861911 participants (10/42)): 23.8%
- Headache, participants with AE ([3]; SAD, all JNJ-54861911 participants (16/42)): 38.1%
- Tolerability ([3]; single and multiple oral doses between 1 and 150 mg (SAD and MAD studies), healthy participants): well-tolerated
- Back pain, participants with AE ([4]; all JNJ-54861911 participants (11/52)): 21.2%
- Headache, participants with AE ([4]; all JNJ-54861911 participants (13/52)): 25.0%
